Laboratory results: patent publication US4036696A, “Preparation of antibiotics by fermentation” (priority 1976, dated 1977)
Structures can show the parent of a compound that is named as a salt. Where two headings read alike, the source gives them in different places.

Columns and labels:
penicillinase = settings: background statement; cited from earlier work
[1] = system: Alcaligenes viscosus (MB-12); assay: bacterial inactivation by washed cells; settings: 4 hour incubation; assayed on B. subtilis (MB-964)
Proteus mirabilis 241 = assay: bacterial inactivation; settings: 4 hours incubation; assayed on B. subtilis (MB-964)
Description: (§1) These cultures are: Escherichia coli 236, Proteus morganii 251, Proteus morganii 356 and Proteus mirabilis 241. […] In conducting the assay, individual mixtures of the organisms and one of the antibiotics were sampled after 4 hours incubation and assayed for residual antibiotic activity. The procedure is the same assay method as described above against Alcaligenes faecalis MB-9 and A. viscosus MB-12.

Proteus morganii 251 = assay: bacterial inactivation; settings: 4 hours incubation; assayed on B. subtilis (MB-964)
Description: as §1

Escherichia coli 236 = assay: bacterial inactivation; settings: 4 hours incubation; assayed on B. subtilis (MB-964)
Description: as §1

Proteus morganii 356 [2] = assay: bacterial inactivation; settings: 4 hours incubation; assayed on B. subtilis (MB-964)
Description: as §1

[3] = system: gram-negative and gram-positive bacteria; settings: background statement, cited from earlier work
[4] = system: Aerobacter cloacae (MB-2646); assay: inactivation by cell-free filtrate; type: biochemical; settings: for Antibiotic Activity Remaining: starting concentration 250 μg./ml.
Description: The ability of Antibiotic 810A and cephalosporin C to withstand the degradative effect of the culture Aerobacter cloacae (MB-2646) was also determined. This culture is gram-negative and resistant to cephalosporin C. […] The source of the inactivating substance is a 1:160 dilution of the filtrate of an 18 hour 37° C. shake culture of Aerobacter cloacae MB-2646 in nutrient broth containing 0.2% yeast extract. Table XIV, infra, indicates the percent inactivation of Antibiotic 810A, cephalothin, cephaloridine and cephalosporin C on Vibrio percolans (MB-1272) via this method:
Using the same assay procedure as described above, Table XV, infra, indicates the relative resistance of Antibiotic 810A to enzymatic inactivation by Aerobacter cloacae. The starting concentration in 250 μg./ml. Results are expressed in μg./ml.

[5] = system: Alcaligenes viscosus (MB-12); settings: organism known to inactivate; cited from earlier work
cephalosporinases = settings: background statement; cited from earlier work
[6] = system: Alcaligenes faecalis (MB-9); assay: bacterial inactivation by washed cells
[7] = system: Alcaligenes faecalis (MB-9); settings: organism known to inactivate; cited from earlier work
Proteus morganii 3202 = assay: in vivo protection of infected mice; settings: subcutaneous; 4000 mg. × 2 doses (so in the source)
Description: (§2) Methods: The method employed in this characterization is as follows: Female white Swiss mice, average weight 20-23 grams, were infected intraperitoneally with 3-20 times the number of organisms calculated to be lethal for 50% of the infected control animals (3-20 LD50 doses). At the time of infection and again 6 hours later, therapy was given by the designated route. Controls of the virulence of the culture and the toxicity of the antibiotic for uninfected mice were included in the tests. Seven days after infection the test was considered complete and the amount of the antibiotic (I) that would be required to protect 50% of the infected and treated animals was calculated by the method of Knudsen and Curtis: J. Amer. Stat. Assoc. Vol. 42: page 282 (1947).
The method employed in these studies is the same as described above with regard to the in vivo characterization of 810A. The results of these tests are described below in Table XIb:
Administration was by subcutaneous injection. At the completion of the test period, usually 7 days after administration, the amount of product required to protect 50% of the mice (ED50) from this otherwise fatal injection was calculated: […]

Proteus morganii 356 [8] = assay: mouse protection test, clinical isolate; type: in vivo, mice; settings: subcutaneous route × 2 doses (average of two trials)
Description: as §2
Administration was by subcutaneous injection. At the completion of the test period, usually 7 days after administration, the amount of product required to protect 50% of the mice (ED50) from this otherwise fatal injection was calculated:
In addition to the aforementioned in vivo trials of the product, a clinical isolate of Proteus morganii 356 which is resistant to cephalosporins and capable of degrading cephalosporin C, was employed in a mouse protection test performed in the same manner as reported above.

[9] = system: Vibrio percolans (MB-1272); assay: disc-plate assay using Vibrio percolans; settings: Comamonas terrigena, read-out: concentration giving a 25 mm. zone, Example 11 concentrate at a dilution of 1:100
[10] = system: Alcaligenes faecalis (MB-9); settings: 3 h
[11] = 2 hour incubation, assayed on V. percolans (MB-1272)
[12] = 2 hour incubation, assay organism B. subtilis 964
[13] = 2 hour incubation, assay organism V. percolans 1272

For `CC(=O)OCC1=C(C(=O)O)N2C(=O)[C@@H](NC(=O)CCC[C@@H](N)C(=O)O)[C@H]2SC1` [Cephalosporin C], the behaviour toward penicillinase (penicillinase) is listed as “inherent resistance to penicillinase”, the “Percent Inactivation After Incubation With Washed Bacterial Cells” value [1] is listed as over 99% and the percent inactivation (Proteus mirabilis 241) is listed as 72%. For the same compound, the percent inactivation (Proteus morganii 251) was over 99%, the percent inactivation (Escherichia coli 236) was over 99% and the percent inactivation (Proteus morganii 356 [2]) was over 99%. The antibacterial activity [3] was “only moderately active”, the antibacterial activity ([3]; listed as cephalosporin C) was “relatively low antibacterial activity” and the “Percent Inactivation After Incubation With Cell-Free Extract” value [4, 11] was 96%. The “inactivation of cephalosporin C” value [5] was “completely inactivate”, the behaviour toward cephalosporinases (cephalosporinases) was “effective in destroying its activity” and the “Percent Inactivation After Incubation With Washed Bacterial Cells” value ([6]; 3 hour incubation, assayed on B. subtilis (MB-964), 4 mg./ml.) was over 99%. For the same compound, the “Percent Inactivation After Incubation With Washed Bacterial Cells” value ([6]; 3 hour incubation, assayed on V. percolans (MB-1272)) was over 99%, the “Percent Inactivation After Incubation With Washed Bacterial Cells” value ([6]; 4 hour incubation, assayed on B. subtilis (MB-964)) was over 99% and the “inactivation of cephalosporin C” value [7] was “completely inactivate”.
With `O=C(Cc1cccs1)N[C@@H]1C(=O)N2C(C(=O)[O-])=C(C[n+]3ccccc3)CS[C@H]12` [Cephaloridine] the “Percent Inactivation After Incubation With Cell-Free Extract” value ([4]; aerobacter cloacae culture filtrate, 2 h) was 96%, the “Antibiotic Activity Remaining” value [4, 12] was under 10 µg/mL and the “Antibiotic Activity Remaining” value [4, 13] was under 10 µg/mL. The “protection of infected mice” value (Proteus morganii 3202) was “failed to protect” and the ED50 (Proteus morganii 356 [8]) was 9,270 μg.
In the case of `CC1(C)S[C@@H]2[C@H](NC(=O)Cc3ccccc3)C(=O)N2[C@H]1C(=O)O` [Penicillin G], the behaviour toward penicillinase (penicillinase) is given as “degraded to a form which is ineffective against most pathogens”.
`CO[C@@]1(NC(=O)CCC[C@@H](N)C(=O)O)C(=O)N2C(C(=O)O)=C(COC(N)=O)CS[C@@H]21` [Sodium Salt] gave an IC (25 mm zone) [9] of 400 µg/mL.
With `CC(=O)OCC1=C(C(=O)O)N2C(=O)[C@@H](NC(=O)Cc3cccs3)[C@H]2SC1` [Cephalothin] the “Percent Inactivation After Incubation With Cell-Free Extract” value [4, 11] was 66%, the “Antibiotic Activity Remaining” value [4, 12] was 140 µg/mL and the “Antibiotic Activity Remaining” value [4, 13] was 85 µg/mL. For the same compound, the “protection of infected mice” value (Proteus morganii 3202) was “failed to protect”, the ED50 (Proteus morganii 356 [8]) was > 20,000 μg and the “Percent Inactivation After Incubation With Washed Bacterial Cells” value [10] was 50%.
